pIC50: −log10 of the molar value.
Tests used:
[1] = system: SK-HEP-1: human liver cell cancer line; assay: MTT assay on SK-HEP-1; assay type: cell-based; settings: SK-HEP1, 96 h, growth inhibition, 96 h incubation
Description: (§1) The analysis of the cytotoxic effects of the ADCs was carried out with various cell lines:
(§2) The cells were cultivated by the standard method as stated by the American Tissue Culture Collection (ATCC) or the Leibniz-lnstitut DSMZ-Deutsche Sammlung von Mikroorganismen und Zellkulturen GmbH (DSMZ) for the cell lines in question.
(§3) The cells were then incubated in an incubator at 37° C. and 5% carbon dioxide. […] To this end, the MTT reagent was incubated with the cells for 4 h, followed by lysis of the cells overnight by addition of the detergent. […] The measured data were used to calculate the ICo50 of the growth inhibition using the DRC (dose response curve). The proliferation of cells which were not treated with test substance but were otherwise identically treated was defined as the 100% figure.

[2] = system: NCI-H292: human mucoepidermoid lung carcinoma cells; assay: MTT assay on NCI-H292; assay type: cell-based; settings: NCI-H292, 96 h, growth inhibition, 96 h incubation
Description: as §1, §2, §3

[3] = molecular target: T1, motor domain of the human kinesin spindle protein KSP/Eg5 (Homo sapiens, UniProt P52732); assay: Inhibition of the kinesin spindle protein KSP/Eg5 (ATPase activity, malachite green); assay type: biochemical; settings: 10 nM KSP/Eg5, microtubuli, 500 μM ATP, 2 h at RT
T1 construct: The motor domain of the human kinesin spindle protein KSP/Eg5; purchased tebu-bio/Cytoskeleton Inc 027EG01-XL
T1 sequence (P52732 18-359 limits assumed): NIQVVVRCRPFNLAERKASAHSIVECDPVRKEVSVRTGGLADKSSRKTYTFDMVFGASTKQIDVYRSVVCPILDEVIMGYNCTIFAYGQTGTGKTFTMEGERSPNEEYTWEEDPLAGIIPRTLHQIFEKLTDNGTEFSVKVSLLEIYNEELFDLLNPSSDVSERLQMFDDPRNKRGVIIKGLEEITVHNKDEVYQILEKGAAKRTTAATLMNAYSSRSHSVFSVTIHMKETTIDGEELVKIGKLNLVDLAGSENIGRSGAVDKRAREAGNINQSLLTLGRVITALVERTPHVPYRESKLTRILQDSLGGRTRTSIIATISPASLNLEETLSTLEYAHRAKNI
Description: The motor domain of the human kinesin spindle protein KSP/Eg5 (tebu-bio/Cytoskeleton Inc, No. 027EG01-XL) was incubated in a concentration of 10 nM with microtubuli (bovine or porcine, tebu-bio/Cytoskeleton Inc) stabilized with 50 μg/ml taxol (Sigma No. T7191-5MG) for 5 min at RT in 15 mM PIPES, pH 6.8 (5 mM MgCl2 and 10 mM DTT, Sigma). […] Incubation was at RT for 2 h. ATPase activity was detected by detecting the inorganic phosphate formed using malachite green (Biomol). […] The positive controls used were monastrol (Sigma, M8515-1 mg) and ispinesib (AdooQ Bioscience A10486). The individual data of the dose-activity curve are eight-fold determinations. The IC50 values are means of two independent experiments.

[4] = system: KPL4: human breast cancer cell line; assay: MTT assay on KPL4; assay type: cell-based; settings: KPL4, 96 h, growth inhibition, 96 h incubation
Description: as §1, §2, §3

[5] = Assay for determination of stability in rat plasma; assay type: in vitro ADME; settings: 1 μg/ml, 37° C., 24 h
Description: To examine the stability of compounds A and B, 1 ml of rat plasma in a 1.5 ml Eppendorf tube in each case was equilibrated to 37° C. on an Eppendorf shaker. A stock solution (9 acetonitrile/1 DMSO) having a concentration of 100 μg/ml for compound A and compound B was prepared. 10 μl in each case of the stock solution were pipetted into 1 ml of equilibrated rat plasma, so as to give a concentration of 1 μg/ml.
The samples were kept at 450 rpm and 37° C. for 24 h. At each of the sampling times of 0, 0.25 h, 0.5 h, 1 h, 2 h, 4 h, 6 h and 24 h, 50 μl were taken and pipetted into 150 μl of methanol. Internal standard was included in the initial charge of methanol at a concentration of 0.05 μg/ml. After brief vortexing, 300 μl of 10 mM ammonium acetate buffer (pH 6.8) were added and centrifuged at 1881 g for 10 min. The samples were then analysed by means of RP-HPLC analysis and by LC-MS analysis.

CC(C)(C)[C@H](c1cc(-c2cc(F)ccc2F)cn1Cc1ccccc1)N(CC[C@H](N)C(=O)NCCNC(=O)CNC(=O)CCCC(=O)NCCCC[C@H](N)C(=O)O)C(=O)CO [Example M28, N^6—{(3R,7S)-7-Amino-3-[1-benzyl-4-(2,5-difluorophenyl)-1H-pyrrol-2-yl]-4-glycoloyl-2,2-dimethyl-8,13,16,20-tetraoxo-4,9,12,15-tetraazaicosan-20-yl}-L-lysine/trifluoroacetic acid (1:1)] gave an IC50 [1] of 187 nM, an IC50 [2] of 155 nM and a pIC50 [3] of 8.85. For the same compound, the IC50 [4] was 210 nM.

Compound CC(C)(C)[C@H](c1cc(-c2cc(F)ccc2F)cn1Cc1ccccc1)N(CC[C@H](N)C(=O)NCCNC(=O)CCCC(=O)NCCCC[C@H](N)C(=O)O)C(=O)CO [Example M29, N^6-(5-{[2-({(2S)-2-Amino-4-[{(1R)-1-[1-benzyl-4-(2,5-difluorophenyl)-1H-pyrrol-2-yl]-2,2-dimethylpropyl} (glycoloyl)amino]butanoyl}amino)ethyl]amino}-5-oxopentanoyl)-L-lysine/trifluoroacetic acid (1:1)] has an IC50 [1] of 207 nM, an IC50 [2] of 187 nM and a pIC50 [3] of 8.69.

With CNC(=O)[C@H](CCN(C(=O)CO)[C@@H](c1cc(-c2cc(F)ccc2F)cn1Cc1ccccc1)C(C)(C)C)NC(=O)[C@H](CC(N)=O)NC(=O)[C@H](C)NC(=O)[C@H](C)NC(=O)Cc1ccncc1 [Example R3r-LLL, N-(Pyridin-4-ylacetyl)-L-alanyl-L-alanyl-N^1-[(2S)-4-[{(1R)-1-[1-benzyl-4-(2,5-difluorophenyl)-1H-pyrrol-2-yl]-2,2-dimethylpropyl}(glycoloyl)amino]-1-(methylamino)-1-oxobutan-2-yl]-L-aspartamide, reference compound] the IC50 [1] was 232 nM, the IC50 [2] was 204 nM and the “stability in rat plasma” value [5] was “stable over 24 h”. The pIC50 [3] was 6.79.
